Reference: patent US20260297080A1, “BICYCLIC COMPOUNDS AS CDK INHIBITORS” (BeOne Medicines I GmbH, priority 2022, published 2026)

Assays:
[1] = target: CDK1/Cyclin B1 (Homo sapiens, UniProt P06493); assay: CDK1/Cyclin B1 Biochemical Assay (TR-FRET), 0.015 mM ATP; details: 0.15 μM Rb (Ser780)-biotin substrate, pH7.0, 60 min preincubation, 120 min reaction, room temperature
How it was run: (§1)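 IC50 was from a four-parameter logistic fit of the 665/620 nm TR-FRET ratio (Eu anti-pRb Ser780 mAb, streptavidin-XL665). Compound (0-10 μM) was preincubated 60 min with enzyme, then reacted 120 min at room temperature with 0.15 μM biotinylated Rb (Ser780) peptide. ATP was 0.015 mM for CDK1/Cyclin B1 and 0.060 mM for CDK2/Cyclin E1; buffer was HEPES pH7.0.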

[2] = target: CDK2/Cyclin E1 (Homo sapiens, UniProt P24941); assay: CDK2/Cyclin E1 Biochemical Assay (TR-FRET), 0.060 mM ATP; details: 0.15 μM Rb (Ser780)-biotin substrate, pH7.0, 60 min preincubation, 120 min reaction, room temperature
How it was run: as §1

Chain of CDK1/Cyclin B1 (P06493 whole entry): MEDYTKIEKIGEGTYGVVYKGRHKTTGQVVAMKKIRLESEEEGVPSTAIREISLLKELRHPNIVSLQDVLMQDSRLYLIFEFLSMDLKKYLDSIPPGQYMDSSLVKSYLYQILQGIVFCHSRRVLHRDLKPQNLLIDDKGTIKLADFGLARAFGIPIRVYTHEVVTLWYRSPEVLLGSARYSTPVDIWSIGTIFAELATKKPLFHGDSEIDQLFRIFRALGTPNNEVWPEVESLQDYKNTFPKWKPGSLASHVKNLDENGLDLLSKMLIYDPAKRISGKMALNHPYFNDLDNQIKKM
Chain of CDK1/Cyclin B1 (P14635 whole entry partner): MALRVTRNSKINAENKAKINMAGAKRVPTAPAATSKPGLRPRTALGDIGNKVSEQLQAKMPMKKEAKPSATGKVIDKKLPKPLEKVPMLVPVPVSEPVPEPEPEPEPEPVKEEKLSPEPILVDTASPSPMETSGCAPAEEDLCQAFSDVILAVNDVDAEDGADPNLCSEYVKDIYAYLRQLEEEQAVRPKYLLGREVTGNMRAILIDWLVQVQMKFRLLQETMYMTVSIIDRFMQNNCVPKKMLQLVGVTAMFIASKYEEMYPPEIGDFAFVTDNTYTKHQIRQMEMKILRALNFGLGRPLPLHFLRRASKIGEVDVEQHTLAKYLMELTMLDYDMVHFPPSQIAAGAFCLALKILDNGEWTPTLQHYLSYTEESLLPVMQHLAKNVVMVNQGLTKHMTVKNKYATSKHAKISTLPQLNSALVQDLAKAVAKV

IC50 [1] [nM] | IC50 [2] [nM] | Structure (SMILES)
131 | 8.1 | CC(C)NC(=O)O[C@H]1CC[C@@H](c2cc(Nc3cc(F)c4c(c3)CS(=O)(=O)N4CC(F)(F)F)n[nH]2)C1 (relative stereo) [Example 281, cis-3-(3-((7-fluoro-2,2-dioxido-1-(2,2,2-trifluoroethyl)-1,3-dihydrobenzo[c]isothiazol-5-yl)amino)-1H-pyrazol-5-yl)cyclopentyl isopropylcarbamate]
141 | 7.7 | COCN1c2c(F)cc(Nc3cc([C@@H]4CC[C@H](OC(=O)NC(C)C)C4)[nH]n3)cc2CS1(=O)=O (relative stereo) [Example 282, cis-3-(3-((7-fluoro-1-(methoxymethyl)-2,2-dioxido-1,3-dihydrobenzo[c]isothiazol-5-yl)amino)-1H-pyrazol-5-yl)cyclopentyl isopropylcarbamate]
56 | 3 | CC(C)NC(=O)O[C@H]1CC[C@@H](c2cc(Nc3cc(F)c4c(c3)CS(=O)(=O)N4C3COC3)n[nH]2)C1 (relative stereo) [Example 283, cis-3-(3-((7-fluoro-1-(oxetan-3-yl)-2,2-dioxido-1,3-dihydrobenzo[c]isothiazol-5-yl)amino)-1H-pyrazol-5-yl)cyclopentyl isopropylcarbamate]
61 | 8.3 | [2H]C([2H])([2H])C1c2cc(Nc3cc([C@@H]4CC[C@H](OC(=O)NCCC)C4)[nH]n3)cc(F)c2N(C([2H])([2H])[2H])S1(=O)=O (relative stereo) [Example 284, cis-3-(3-((7-fluoro-1,3-bis(methyl-d3)-2,2-dioxido-1,3-dihydrobenzo[c]isothiazol-5-yl)amino)-1H-pyrazol-5-yl)cyclopentyl propylcarbamate]
196 | 12 | [2H]C([2H])([2H])N1c2c(F)cc(Nc3cc([C@@H]4CC[C@H](OC(=O)N[C@@H](C)CC)C4)[nH]n3)cc2CS1(=O)=O (relative stereo) [Example 285, cis-3-(3-((7-fluoro-1-(methyl-d3)-2,2-dioxido-1,3-dihydrobenzo[c]isothiazol-5-yl)amino)-1H-pyrazol-5-yl)cyclopentyl((S)-sec-butyl)carbamate]
174 | 11 | [2H]C([2H])([2H])C1c2cc(Nc3cc([C@@H]4CC[C@H](OC(=O)N[C@@H](C)CC)C4)[nH]n3)cc(F)c2N(C([2H])([2H])[2H])S1(=O)=O (relative stereo) [Example 286, cis-3-(3-((7-fluoro-1,3-bis(methyl-d3)-2,2-dioxido-1,3-dihydrobenzo[c]isothiazol-5-yl)amino)-1H-pyrazol-5-yl)cyclopentyl((S)-sec-butyl)carbamate]
77 | 7.7 | [2H]C([2H])([2H])C1c2cc(Nc3cc([C@@H]4CC[C@H](OC(=O)NC5(C)CC5)C4)[nH]n3)cc(F)c2N(C([2H])([2H])[2H])S1(=O)=O (relative stereo) [Example 287, cis-3-(3-((7-fluoro-1,3-bis(methyl-d3)-2,2-dioxido-1,3-dihydrobenzo[c]isothiazol-5-yl)amino)-1H-pyrazol-5-yl)cyclopentyl(1-methylcyclopropyl)carbamate]
152 | 5.5 | CC(C)NC(=O)O[C@H]1CC[C@@H](c2cc(Nc3cc(F)c4c(c3)CS(=O)(=O)N4C3CC3)n[nH]2)C1 (relative stereo) [Example 288, cis-3-(3-((1-cyclopropyl-7-fluoro-2,2-dioxido-1,3-dihydrobenzo[c]isothiazol-5-yl)amino)-1H-pyrazol-5-yl)cyclopentyl isopropylcarbamate]
1120 | 64 | CCCNC(=O)O[C@H]1CC[C@@H](c2cc(Nc3cc4c(cc3F)NS(=O)(=O)C4)n[nH]2)C1 (relative stereo) [Example 293, cis-3-(3-((6-fluoro-2,2-dioxido-1,3-dihydrobenzo[c]isothiazol-5-yl)amino)-1H-pyrazol-5-yl)cyclopentyl propylcarbamate]
359 | 15 | CC[C@H](C)NC(=O)O[C@H]1CC[C@@H](c2cc(Nc3cc4c(cc3F)NS(=O)(=O)C4)n[nH]2)C1 (relative stereo) [Example 294, cis-3-(3-((6-fluoro-2,2-dioxido-1,3-dihydrobenzo[c]isothiazol-5-yl)amino)-1H-pyrazol-5-yl)cyclopentyl((S)-sec-butyl)carbamate]
426 | 23 | CC1(NC(=O)O[C@H]2CC[C@@H](c3cc(Nc4cc5c(cc4F)NS(=O)(=O)C5)n[nH]3)C2)CC1 (relative stereo) [Example 295, cis-3-(3-((6-fluoro-2,2-dioxido-1,3-dihydrobenzo[c]isothiazol-5-yl)amino)-1H-pyrazol-5-yl)cyclopentyl(1-methylcyclopropyl)carbamate]
607 | 38 | CCCNC(=O)O[C@H]1CC[C@@H](c2cc(Nc3cc4c(cc3F)N(CCO)S(=O)(=O)C4)n[nH]2)C1 (relative stereo) [Example 297, cis-3-(3-((6-fluoro-1-(2-hydroxyethyl)-2,2-dioxido-1,3-dihydrobenzo[c]isothiazol-5-yl)amino)-1H-pyrazol-5-yl)cyclopentyl propylcarbamate]
166 | 4.7 | CC(C)CNC(=O)O[C@H]1CC[C@@H](c2cc(Nc3cc4c(cc3F)N(CCO)S(=O)(=O)C4)n[nH]2)C1 (relative stereo) [Example 298, cis-3-(3-((6-fluoro-1-(2-hydroxyethyl)-2,2-dioxido-1,3-dihydrobenzo[c]isothiazol-5-yl)amino)-1H-pyrazol-5-yl)cyclopentyl isobutylcarbamate]
239 | 9 | CC1(NC(=O)O[C@H]2CC[C@@H](c3cc(Nc4cc5c(cc4F)N(CCO)S(=O)(=O)C5)n[nH]3)C2)CC1 (relative stereo) [Example 299, cis-3-(3-((6-fluoro-1-(2-hydroxyethyl)-2,2-dioxido-1,3-dihydrobenzo[c]isothiazol-5-yl)amino)-1H-pyrazol-5-yl)cyclopentyl(1-methylcyclopropyl)carbamate]
513 | 36 | CC(C)NC(=O)O[C@H]1CC[C@@H](c2cc(Nc3cc4c(cc3F)N(C)S(=O)(=O)C4)n[nH]2)C1 (relative stereo) [Example 300, cis-3-(3-((6-fluoro-1-methyl-2,2-dioxido-1,3-dihydrobenzo[c]isothiazol-5-yl)amino)-1H-pyrazol-5-yl)cyclopentyl isopropylcarbamate]
404 | 12 | CC(C)NC(=O)O[C@H]1CC[C@@H](c2cc(Nc3cc4c(cc3F)N(C3COC3)S(=O)(=O)C4)n[nH]2)C1 (relative stereo) [Example 301, cis-3-(3-((6-fluoro-1-(oxetan-3-yl)-2,2-dioxido-1,3-dihydrobenzo[c]isothiazol-5-yl)amino)-1H-pyrazol-5-yl)cyclopentyl isopropylcarbamate]
686 | 21 | CC(C)NC(=O)O[C@H]1CC[C@@H](c2cc(Nc3cc4c(cc3F)N(C3CC3)S(=O)(=O)C4)n[nH]2)C1 (relative stereo) [Example 302, cis-3-(3-((1-cyclopropyl-6-fluoro-2,2-dioxido-1,3-dihydrobenzo[c]isothiazol-5-yl)amino)-1H-pyrazol-5-yl)cyclopentyl isopropylcarbamate]
